Like-named read-outs stand apart in the source and are kept apart here.
What was measured:
[1] = test system: Trypanosoma brucei brucei 427 cells; experiment: T. brucei culture and assay (PrestoBlue); assay type: cell-based; conditions: Trypanosoma brucei; Table 1; mean of 2(+) independent trials; read-out: IC50 T. brucei
[2] = test system: Leishmania amazonensis promastigotes expressing beta-lactamase; experiment: microbe, parasite or virus in culture; assay type: cell-based; conditions: Leishmania amazonensis, read-out: IC50 L. amaz.
[3] = test system: rat skeletal muscle cell line, L6; experiment: cells; assay type: cell-based; conditions: Rattus norvegicus; Table 1; read-out: IC50 Toxicity (L6)
[4] = test system: C. albicans (ATCC strain 90028); experiment: Antifungal microdilution broth assay (PrestoBlue), C. albicans; assay type: cell-based, Candida albicans; conditions: Candida albicans
Outline: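 Inoculum of 1.5×10^3 cells/mL in RPMI-MOPS (0.165 M MOPS, pH 7.0), exposed to aurones for 24 h at 35 °C. Growth read by PrestoBlue (10% final) fluorescence at ex 560/em 590 nm.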

[5] = test system: Trypanosoma cruzi Tulahuen cells expressing beta-galactosidase; experiment: T. cruzi intracellular assay (beta-galactosidase, L6 host cells); conditions: Trypanosoma cruzi, TULAHUEN, intracellular assay
IL-1β = experiment: Cytokine response by ELISA, IL-1β; assay type: cell-based, human; conditions: LPS-stimulated THP-1, ELISA
Procedure: Dexamethasone is a synthetic glucocorticoid that suppresses LPS-induced pro-inflammatory cytokine expression and was used as a control (Abraham, Lawrence et al. 2006). Supernatants were collected for human cytokine ELISAs and the manufacturer's protocol was followed to assess the cytokine response. Cells remaining after the supernatant collection were tested for relative viability by Alamar Blue cytotoxicity assay as previously described.

[6] = test system: p65-EGFP / TNFα promoter mCherry reporter; experiment: Live cell imaging of RAW 264.7 dual reporter cells (p65-EGFP, TNFα promoter mCherry); assay type: cell-based, murine; conditions: 50 μM pre-treatment
Procedure: Cells were maintained at 37° C. with 5% CO2 in a humidified atmosphere during imaging. EGFP and mCherry fluorescence were imaged using FITC and Cy3 filters, respectively. Nikon Elements Software (Nikon. USA) was used for microscope control and image capture. Post-acquisition, images were analyzed using Fiji (Schindelin, Arganda-Carreras et al. 2012). Images were background subtracted and cytoplasmic:nuclear p65-EGFP and whole cell mCherry fluorescence were quantified for individual cells at each time point.

ERK, JNK, p38 = experiment: Western blot, MAPK phosphorylation, THP-1; conditions: LPS 15 min
Procedure: U0126 is a compound that inhibits MEK1/2 and was used as positive control for ERK phosphorylation inhibition (Hotokezaka, Sakai et al. 2002). Cells were lysed with radio-immunoprecipitation assay (RIPA) lysis buffer that contained a protease and phosphatase inhibitor cocktail. Cell lysates were then tested for protein concentration using a BCA protein assay and diluted with RIPA lysis buffer to normalize protein concentration in all samples. Lysates were mixed with sample loading buffer containing bromophenol blue, glycerol, SDS, and 2-mercaptoethanol. The separated proteins were then transferred onto a nitrocellulose membrane and blocked with 5% BSA in IX Tris-buffered saline with 0.1% Tween-20 for 1 h. The blots were incubated with primary antibodies at 4° C. overnight followed by incubation with HRP-conjugated secondary antibodies for 2 h at 22° C. The membranes were developed by addition of ECL substrate and images were collected with a ChemiDoc XRS+ system chemiluminescence imager (Bio-Rad, Hercules, Calif., USA). Western blot band intensity was quantified using Image Lab software (Bio-Rad, Hercules, Calif., USA). […]

For `COc1ccc(/C=C2\Oc3c(ccc(O)c3O)C2=O)cc1O` [Aurone 1009, (Z)-6,7-dihydroxy-2-(3-hydroxy-4-methoxybenzylidene)benzofuran-3(2H)-one], the IC50 [1] was 18.8 µM, the IC50 [2] was 9.63 µM and the IC50 [3] was 45 µM. The IC50 ([4]; ATCC90028, Table 5, read-out: IC50 C. albicans) was 16 µM, the IC50 ([4]; ATCC90028, across C. albicans, C. glabrata, and C. tropicalis, read-out: IC50 values against Candida species) was 10 to 18 µM and the IC50 ([5]; read-out: IC50 T. cruzi, Table 1, mean of 2(+) trials (^c one trial)) was > 50 µM. The IC50 ([5]; read-out: IC50 T. cruzi, Table 2, mean of 2(+) independent trials) was > 50 µM.

With `O=C1/C(=C/c2ccc(CO)o2)Oc2ccccc21` [aurone 1] the “reduction of IL-1β expression” value (IL-1β) was 98%, the “expression of mCherry (TNFα promoter reporter)” value [6] was “smaller fold-change in the expression of mCherry” and the “nuclear translocation of p65-EGFP post-LPS” value [6] was “diminished”. For the same molecule, the “phosphorylation of ERK, JNK, or p38” value (ERK, JNK, p38) was “no statistically significant effect”.
